According to ChEMBL document CHEMBL1136598, “Design, synthesis, and structure-activity relationships of unsubstituted piperazinone-based transition state factor Xa inhibitors” (Bioorg Med Chem Lett, 2003):
The source made the active and inactive calls. The calls are words filed in the database; no cut-off is given here.

Tests used:
[1] = In vivo half life period after intravenous administration in rat; type: ADME, organism-based
[2] = target: Vitamin K-dependent protein C (Homo sapiens, UniProt P04070); assay: Inhibitory activity against activated protein C (aPC)
Coagulation factor X [3] = target: T1, Coagulation factor X (Homo sapiens, UniProt P00742); assay: (§1) In vitro binding affinity towards factor Xa
Coagulation factor X [4] = target: T1, Coagulation factor X; assay: as §1; remark: listed apart in the source
Coagulation factor X [5] = target: T1, Coagulation factor X; assay: In vitro inhibitory activity against factor Xa
[6] = Inhibitory activity against Kallikrein
Plasminogen = Plasminogen (Homo sapiens, UniProt P00747); assay: Inhibitory activity against Plasmin
[7] = In vitro anticoagulant activity was measured by activated partial thromboplastin time (APTT) assay; type: functional
[8] = In vitro anticoagulant activity was measured by prothrombin time (PT) assay; type: functional
[9] = In vitro anticoagulant activity was measured by plasma based on thrombin generation (TG) assay; type: functional
Oryctolagus cuniculus [10] = assay: In vivo plasma concentration required to inhibit thrombosis formation in rabbit; type: functional, organism-based
Oryctolagus cuniculus [11] = assay: In vivo inhibition thrombosis formation in rabbit; type: functional
[12] = target: Tissue-type plasminogen activator (Homo sapiens, UniProt P00750); assay: Inhibitory activity against tissue plasminogen activator (tissue plasminogen activator)
Serine protease 1 = Serine protease 1 (Homo sapiens, UniProt P07477); assay: Inhibitory activity against Trypsin
Prothrombin = Prothrombin (Homo sapiens, UniProt P00734); assay: In vitro inhibitory activity against serine protease thrombin
[13] = Half life period after intravenous administration in rat; type: ADME, organism-based; conditions: in vivo
Coagulation factor X [14] = target: T1, Coagulation factor X; assay: In vitro binding affinity towards factor Xa; Not active
Oryctolagus cuniculus [15] = organism: Oryctolagus cuniculus; assay: Plasma concentration required to inhibit thrombosis formation in rabbit; type: functional, organism-based
Oryctolagus cuniculus [16] = organism: Oryctolagus cuniculus; assay: Inhibition thrombosis formation in rabbit; type: functional

Chain of Serine protease 1 (P07477 whole entry): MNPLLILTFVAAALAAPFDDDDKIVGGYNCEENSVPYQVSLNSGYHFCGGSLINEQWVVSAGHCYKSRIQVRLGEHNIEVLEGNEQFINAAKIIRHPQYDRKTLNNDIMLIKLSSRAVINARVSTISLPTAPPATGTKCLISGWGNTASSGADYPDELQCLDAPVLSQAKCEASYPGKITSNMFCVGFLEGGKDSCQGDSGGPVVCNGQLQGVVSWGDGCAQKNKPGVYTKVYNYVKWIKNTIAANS
Chain of Vitamin K-dependent protein C (P04070 43-197 limits assumed): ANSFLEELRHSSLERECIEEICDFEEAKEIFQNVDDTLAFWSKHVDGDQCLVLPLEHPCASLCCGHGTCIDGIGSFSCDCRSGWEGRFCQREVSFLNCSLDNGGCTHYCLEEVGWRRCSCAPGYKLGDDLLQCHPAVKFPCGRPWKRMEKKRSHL
Chain of Vitamin K-dependent protein C (P04070 212-461 limits assumed): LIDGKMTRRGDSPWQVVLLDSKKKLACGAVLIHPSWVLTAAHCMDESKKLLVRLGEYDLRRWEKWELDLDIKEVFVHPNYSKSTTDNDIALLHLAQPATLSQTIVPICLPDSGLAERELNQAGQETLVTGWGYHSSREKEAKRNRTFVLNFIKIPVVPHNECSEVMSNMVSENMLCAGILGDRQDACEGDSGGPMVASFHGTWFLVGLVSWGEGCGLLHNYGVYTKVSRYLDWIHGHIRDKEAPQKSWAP
Chain of Plasminogen (P00747 97-580 limits assumed): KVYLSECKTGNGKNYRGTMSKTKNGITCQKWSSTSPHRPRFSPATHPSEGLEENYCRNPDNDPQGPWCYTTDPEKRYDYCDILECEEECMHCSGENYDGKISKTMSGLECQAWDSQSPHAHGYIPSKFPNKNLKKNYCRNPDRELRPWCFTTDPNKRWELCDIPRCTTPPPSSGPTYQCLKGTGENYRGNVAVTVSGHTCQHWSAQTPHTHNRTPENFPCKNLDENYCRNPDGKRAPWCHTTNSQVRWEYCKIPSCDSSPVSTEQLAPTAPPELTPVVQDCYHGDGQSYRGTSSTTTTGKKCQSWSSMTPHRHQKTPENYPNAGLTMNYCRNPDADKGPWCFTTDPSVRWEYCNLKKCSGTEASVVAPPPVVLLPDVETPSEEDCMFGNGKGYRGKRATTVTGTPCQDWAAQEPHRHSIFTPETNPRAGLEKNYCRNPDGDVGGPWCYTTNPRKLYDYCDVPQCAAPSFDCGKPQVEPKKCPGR
Chain of Plasminogen (P00747 581-810 limits assumed): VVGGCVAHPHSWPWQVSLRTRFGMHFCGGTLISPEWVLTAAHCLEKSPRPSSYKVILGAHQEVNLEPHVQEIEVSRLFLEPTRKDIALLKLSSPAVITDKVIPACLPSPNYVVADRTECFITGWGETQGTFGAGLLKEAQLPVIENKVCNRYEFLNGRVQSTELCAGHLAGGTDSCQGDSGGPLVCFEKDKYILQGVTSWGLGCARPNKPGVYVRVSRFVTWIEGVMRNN
Chain of Tissue-type plasminogen activator (P00750 whole entry): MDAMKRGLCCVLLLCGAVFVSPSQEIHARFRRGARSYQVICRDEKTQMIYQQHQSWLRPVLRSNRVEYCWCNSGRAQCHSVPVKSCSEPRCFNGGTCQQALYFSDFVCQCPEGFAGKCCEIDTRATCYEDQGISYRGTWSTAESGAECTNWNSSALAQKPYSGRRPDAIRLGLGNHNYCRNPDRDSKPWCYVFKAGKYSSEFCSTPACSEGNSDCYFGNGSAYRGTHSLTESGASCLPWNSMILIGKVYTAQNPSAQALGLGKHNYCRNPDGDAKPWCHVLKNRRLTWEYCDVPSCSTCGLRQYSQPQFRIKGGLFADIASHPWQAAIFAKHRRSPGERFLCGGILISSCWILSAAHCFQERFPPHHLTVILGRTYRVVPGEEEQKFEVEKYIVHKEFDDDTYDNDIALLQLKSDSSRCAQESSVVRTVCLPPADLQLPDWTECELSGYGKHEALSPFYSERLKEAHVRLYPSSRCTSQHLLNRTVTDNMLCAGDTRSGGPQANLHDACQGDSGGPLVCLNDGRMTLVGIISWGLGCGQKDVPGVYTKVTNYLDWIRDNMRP
T1 sequence (P00742 41-179 limits assumed): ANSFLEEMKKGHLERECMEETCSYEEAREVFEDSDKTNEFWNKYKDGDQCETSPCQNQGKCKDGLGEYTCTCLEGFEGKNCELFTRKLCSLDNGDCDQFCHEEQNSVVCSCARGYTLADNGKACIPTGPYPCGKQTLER
T1 sequence (P00742 235-488 limits assumed): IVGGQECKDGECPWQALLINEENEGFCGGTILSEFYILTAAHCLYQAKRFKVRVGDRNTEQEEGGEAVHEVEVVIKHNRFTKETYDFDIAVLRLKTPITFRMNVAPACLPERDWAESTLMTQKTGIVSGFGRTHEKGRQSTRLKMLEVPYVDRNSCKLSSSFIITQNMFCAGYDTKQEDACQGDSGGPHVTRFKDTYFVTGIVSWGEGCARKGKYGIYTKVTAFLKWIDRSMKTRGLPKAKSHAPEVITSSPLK

Work on `N=C(N)NCCCC(NC(=O)CN1CCN(S(=O)(=O)c2cccc3cccnc23)CC1=O)C(=O)c1nccs1` (stereo unspecified) yielded a half-life [1] of 29 min, an IC50 [2] greater than 180 µM and a k off (Coagulation factor X [3]) of 0.107 s⁻¹. The k on (Coagulation factor X [3]) was 2.9e+06 M⁻¹ s⁻¹, the Ki (Coagulation factor X [4]) was 0.0044 µM and the IC50 (Coagulation factor X [5]) was 0.002 µM. It also gave an IC50 [6] of 0.24 µM, an IC50 (Plasminogen) of 0.01 µM and a 2x APTT [7] of 2 µM. For the same molecule, the 2x PT [8] was 10.4 µM, the “2x TG” value [9] was 2.5 µM and the Plasma concentration (Oryctolagus cuniculus [10]) was 0.4 µM. It also gave an Inhibition (Oryctolagus cuniculus [11]) of 0%, an IC50 [12] of 0.15 µM and an IC50 (Serine protease 1) of 0.002 µM. The IC50 (Prothrombin) was 0.569 µM.

With `N=C(N)NCCC[C@@H](NC(=O)CN1CCN(C(=O)Cc2ccc(Cl)cc2)CC1=O)C(=O)c1nccs1` the IC50 (Coagulation factor X [5]) was 0.017 µM and the IC50 (Prothrombin) was 11 µM.

`N=C(N)NCCCC(NC(=O)CN1CCN(S(=O)(=O)c2ccc(C(F)(F)F)cc2)CC1=O)C(=O)c1nccs1` (stereo unspecified) showed an IC50 (Coagulation factor X [5]) of 0.01 µM and an IC50 (Prothrombin) of 6 µM.

With `N=C(N)NCCCC(NC(=O)CN1CCN(S(=O)(=O)c2cccc(Cl)c2)CC1=O)C(=O)c1nccs1` (stereo unspecified) the IC50 (Coagulation factor X [5]) was 0.005 µM and the IC50 (Prothrombin) was 0.134 µM.

Molecule `N=C(N)NCCC[C@@H](NC(=O)CN1CCN(S(=O)(=O)Cc2ccccc2)CC1)C(=O)c1nccs1` has an IC50 (Coagulation factor X [5]) of 24 µM and an IC50 (Prothrombin) greater than 500 µM.

With `N=C(N)NCCCC(NC(=O)CN1CCN(S(=O)(=O)c2cccc3cnccc23)CC1=O)C(=O)c1nccs1` (stereo unspecified) the IC50 (Coagulation factor X [5]) was 0.001 µM and the IC50 (Prothrombin) was 0.267 µM.

For `N=C(N)NCCCC(NC(=O)CN1CCN(S(=O)(=O)c2ccc(C(=O)O)cc2)CC1=O)C(=O)c1nccs1` (stereo unspecified), the IC50 (Coagulation factor X [5]) was 0.51 µM and the IC50 (Prothrombin) was 17 µM.

Molecule `N#Cc1ccc(S(=O)(=O)N2CCN(CC(=O)NC(CCCNC(=N)N)C(=O)c3nccs3)C(=O)C2)cc1` (stereo unspecified) has an IC50 (Coagulation factor X [5]) of 0.032 µM and an IC50 (Prothrombin) of 3 µM.

`N=C(N)NCCC[C@@H](NC(=O)CN1CCN(S(=O)(=O)c2ccccc2)CC1=O)C(=O)c1nccs1` showed an IC50 (Coagulation factor X [5]) of 0.008 µM and an IC50 (Prothrombin) of 0.417 µM.

Molecule `COc1ccc(S(=O)(=O)N2CCN(CC(=O)NC(CCCNC(=N)N)C(=O)c3nccs3)C(=O)C2)cc1` (stereo unspecified) has an IC50 (Coagulation factor X [5]) of 0.00089 µM and an IC50 (Prothrombin) of 0.792 µM.

In the case of `N=C(N)NCCCC(NC(=O)CN1CCN(S(=O)(=O)c2ccc3c(Cl)cccc3c2)CC1=O)C(=O)c1nccs1` (stereo unspecified), the half-life [13] is reported as 51 min, the IC50 [2] is reported as 170 µM and the k_off (Coagulation factor X [14]) is reported as “inactive”. For the same molecule, the k_on (Coagulation factor X [14]) was “inactive”, the Ki (Coagulation factor X [4]) was 0.0013 µM and the IC50 (Coagulation factor X [5]) was 0.00079 µM. For the same molecule, the IC50 [6] was 0.034 µM, the IC50 (Plasminogen) was 1.88 µM and the 2x APTT [7] was 12.5 µM. For the same molecule, the 2x PT [8] was 12.5 µM, the “2x TG” value [9] was “inactive” and the Plasma concentration (Oryctolagus cuniculus [15]) was 0.2 µM. For the same molecule, the Inhibition (Oryctolagus cuniculus [16]) was 0%, the IC50 [12] was 0.74 µM and the IC50 (Serine protease 1) was 0.0205 µM. For the same molecule, the IC50 (Prothrombin) was 2 µM.

`N=C(N)NCCC[C@@H](NC(=O)CN1CCN(Cc2ccccc2)CC1=O)C(=O)c1nccs1` gave an IC50 (Coagulation factor X [5]) of 0.771 µM and an IC50 (Prothrombin) of 14 µM.

Molecule `N=C(N)NCCC[C@@H](NC(=O)CN1CCN(C(=O)c2ccc(Cl)cc2)CC1=O)C(=O)c1nccs1` has an IC50 (Coagulation factor X [5]) of 0.118 µM and an IC50 (Prothrombin) of 5 µM.

In the case of `N=C(N)NCCC[C@@H](NC(=O)CN1CCNCC1=O)C(=O)c1nccs1`, the IC50 (Coagulation factor X [5]) is reported as 2 µM and the IC50 (Prothrombin) is reported as 220 µM.

For `N=C(N)NCCCC(NC(=O)CN1CCN(S(=O)(=O)c2cc(Cl)c(Cl)cc2Cl)CC1=O)C(=O)c1nccs1` (stereo unspecified), the IC50 (Coagulation factor X [5]) was 0.001 µM and the IC50 (Prothrombin) was 0.573 µM.

`N=C(N)NCCCC(NC(=O)CN1CCN(S(=O)(=O)CCc2cccc3ccccc23)CC1=O)C(=O)c1nccs1` (stereo unspecified) gave an IC50 (Coagulation factor X [5]) of 0.003 µM and an IC50 (Prothrombin) of 0.375 µM.

`N=C(N)NCCC[C@@H](NC(=O)CN1CCN(C(=O)c2ccccc2)CC1=O)C(=O)c1nccs1` showed an IC50 (Coagulation factor X [5]) of 0.32 µM and an IC50 (Prothrombin) of 7 µM.

For `N=C(N)NCCCC(NC(=O)CN1CCN(S(=O)(=O)c2ccc([N+](=O)[O-])cc2)CC1=O)C(=O)c1nccs1` (stereo unspecified), the IC50 (Coagulation factor X [5]) was 0.006 µM and the IC50 (Prothrombin) was 3 µM.

For `N=C(N)NCCCC(NC(=O)CN1CCN(S(=O)(=O)c2ccc(Cl)c(Cl)c2)CC1=O)C(=O)c1nccs1` (stereo unspecified), the IC50 (Coagulation factor X [5]) was 0.001 µM and the IC50 (Prothrombin) was 1 µM.

Molecule `N=C(N)NCCCC(NC(=O)CN1CCN(S(=O)(=O)c2ccc(N)cc2)CC1=O)C(=O)c1nccs1` (stereo unspecified) has an IC50 (Coagulation factor X [5]) of 0.006 µM and an IC50 (Prothrombin) of 5 µM.

For `Cc1nsc(C)c1S(=O)(=O)N1CCN(CC(=O)NC(CCCNC(=N)N)C(=O)c2nccs2)C(=O)C1` (stereo unspecified), the IC50 (Coagulation factor X [5]) was 0.069 µM and the IC50 (Prothrombin) was 0.669 µM.

For `CC(=O)Nc1nc(C)c(S(=O)(=O)N2CCN(CC(=O)NC(CCCN=C(N)N)C(=O)c3nccs3)C(=O)C2)s1` (stereo unspecified), the IC50 (Coagulation factor X [5]) was 0.058 µM and the IC50 (Prothrombin) was 4 µM.

Work on `N=C(N)NCCC[C@@H](NC(=O)CN1CCN(S(=O)(=O)c2ccc(Cl)cc2)CC1=O)C(=O)c1nccs1` yielded a half-life [1] of 22 min, an IC50 [2] greater than 180 µM and a k off (Coagulation factor X [3]) of 0.19 s⁻¹. It also gave a k on (Coagulation factor X [3]) of 3.4e+06 M⁻¹ s⁻¹, an IC50 [6] of 0.406 µM and an IC50 (Plasminogen) of 10.7 µM. For the same molecule, the 2x APTT [7] was 4.2 µM, the 2x PT [8] was 11.2 µM and the “2x TG” value [9] was 0.52 µM. The Plasma concentration (Oryctolagus cuniculus [10]) was 0.5 µM, the Inhibition (Oryctolagus cuniculus [11]) was 90% and the IC50 [12] was 1.88 µM. The IC50 (Serine protease 1) was 0.0108 µM and the IC50 (Prothrombin) was 1 µM.
